Data published in PubChem BioAssay AID588671 (Sanford-Burnham Center for Chemical Genomics, 2011).
Calls of active or inactive are those of the source.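 Rule for the calls: active = IC50 at or below 20 µM; inactive = the rest.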

Biological target: glucose-6-phosphate dehydrogenase-6-phosphogluconolactonase (PfGluPho), Plasmodium falciparum 3D7
Test: PfG6PD enzyme inhibitors, SAR follow-up, biochemical, fluorescence intensity, set 2 (AID 588671)
Conditions: recombinant PfGluPho, diaphorase-resazurin NADPH fluorescence

Structure (SMILES) | IC50
O=C(NCCN1CCCCC1)c1ccc2c(c1)NC(=O)c1ccccc1O2 | inactive
O=C1Nc2cc(C(=O)NCCN3CCCCC3)ccc2S/C1=C\c1ccccc1F | inactive
CN(C)CCNC(=O)c1ccc2c(c1)NC(=O)CO2 | > 80 µM (inactive)
O=C(NCCN1CCOCC1)c1ccc2c(c1)NC(=O)c1ccccc1O2 | > 80 µM (inactive)
CCN1CCC[C@H]1CNC(=O)c1ccc2c(c1)NC(=O)/C(=C/c1ccccc1F)S2 | 4.79 µM
CCN1CCCC1CNC(=O)c1ccc2c(c1)NC(=O)c1ccccc1S2 (configuration not stated) | 9.89 µM
O=C(NCCN1CCCC1)c1ccc2c(c1)NC(=O)c1ccccc1O2 | inactive
CN1CCN(C(=O)c2ccc3c(c2)NC(=O)/C(=C/c2ccccc2Cl)S3)CC1 | > 80 µM (inactive)
O=C1COc2ccc(C(=O)NCCN3CCOCC3)cc2N1 | > 80 µM (inactive)
CCN1CCCC1CNC(=O)c1ccc2c(c1)NC(=O)/C(=C/c1ccccc1OC)S2 (configuration not stated) | 9.79 µM
CCN1CCC[C@@H]1CNC(=O)c1ccc2c(c1)NC(=O)/C(=C/c1ccccc1F)S2 | 1.19 µM
CN(C)CCNC(=O)c1ccc2c(c1)NC(=O)c1ccccc1O2 | > 80 µM (inactive)
O=C1Nc2cc(C(=O)NCCN3CCOCC3)ccc2S/C1=C\c1ccccc1F | > 80 µM (inactive)
O=C1COc2ccc(C(=O)NCCN3CCCCC3)cc2N1 | > 80 µM (inactive)
CCN1CCCC1CNC(=O)c1ccc2c(c1)NC(=O)/C(=C/c1ccccc1F)S2 (configuration not stated) | 1.71 µM
CCN1CCCC1CNC(=O)c1ccc2c(c1)NC(=O)/C(=C/c1ccccc1C)S2 (configuration not stated) | 5.93 µM
CN1CCCC1CCNC(=O)c1ccc2c(c1)NC(=O)/C(=C/c1ccccc1F)S2 (configuration not stated) | inactive
O=C1Nc2cc(C(=O)NCc3ccccc3)ccc2S/C1=C\c1ccccc1F | > 80 µM (inactive)
CCN(CC)CCNC(=O)c1ccc2c(c1)NC(=O)c1ccccc1S2 | inactive
CCN1CCCC1CNC(=O)c1ccc2c(c1)NC(=O)c1ccccc1O2 (configuration not stated) | inactive
CCN1CCCC1CNC(=O)c1ccc2c(c1)NC(=O)/C(=C/c1cccc3ccccc13)S2 (configuration not stated) | 4.28 µM
CCN1CCCC1CNC(=O)c1ccc2c(c1)NC(=O)CO2 (configuration not stated) | > 80 µM (inactive)
O=C(NCCN1CCCC1)c1ccc2c(c1)NC(=O)c1ccccc1S2 | inactive
O=C1COc2ccc(C(=O)NCCN3CCCC3)cc2N1 | > 80 µM (inactive)
CCN1CCCC1CNC(=O)c1ccc2c(c1)NC(=O)CS2 (configuration not stated) | > 80 µM (inactive)
CCN(CC)CCNC(=O)c1ccc2c(c1)NC(=O)CO2 | > 80 µM (inactive)
CCN(CC)CCNC(=O)c1ccc2c(c1)NC(=O)c1ccccc1O2 | inactive
